As usually defined, the IC50 is the point on the concentration scale where inhibition reaches its midpoint. For orientation: kcat/Km means the turnover number divided by the Michaelis constant. A word on the Km: it is the concentration of substrate that gives half-maximal velocity. A word on the kcat: it is the number of substrate molecules converted per active site and unit of time at saturation.

The text below walks through data of article PMC12650519, “The Identification of a Sub-Micromolar Peptide-Based Protein Arginine Methyltransferase 1 (PRMT1) Inhibitor from a Plate-Based Screening Assay” (Biomolecules, 2025).

Assay [1] deals with T1, PRMT1 (Homo sapiens, UniProt Q99873).
T1 construct: made in house
T1 sequence (Q99873 1-353 isoform Q99873-3): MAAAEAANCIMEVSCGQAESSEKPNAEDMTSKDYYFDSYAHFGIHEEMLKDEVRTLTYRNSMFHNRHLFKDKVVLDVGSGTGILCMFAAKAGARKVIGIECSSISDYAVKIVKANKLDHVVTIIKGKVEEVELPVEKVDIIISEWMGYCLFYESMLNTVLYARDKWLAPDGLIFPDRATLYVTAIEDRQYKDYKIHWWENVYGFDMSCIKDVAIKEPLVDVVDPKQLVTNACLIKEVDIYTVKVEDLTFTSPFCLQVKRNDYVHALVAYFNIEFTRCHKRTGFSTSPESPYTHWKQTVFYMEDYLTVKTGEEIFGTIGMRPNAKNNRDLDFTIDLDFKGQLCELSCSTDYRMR
The experiment in a line: MTase-Glo assay, inhibition by chloroacetamidine warhead peptide. In kind it is biochemical. The following applies: inhibitor 0–250 µM, 4 µL of 400 nM PRMT1, 15 min pre-incubation at 37 °C, substrate AcH4-21 (1 µL of 225 µM), Tris pH 8.0. As for the experimental part:
The MTase-Glo assay was also used to determine the inhibition parameters of the chloroacetamidine warhead peptide. For this assay, various concentrations of the chloroacetamidine warhead peptide (0–250 µM) were added to reaction buffer (80 mM Tris Buffer [pH 8.0], […], 4 mM EDTA, 12 mM MgCl2, 0.4 mg/mL BSA and 4 mM DTT) and incubated for 10 min at 37 °C. Following this incubation, 4 µL of 400 nM PRMT1 was added to the inhibition reaction mix and continued to be incubated at 37 °C for 15 min. The substrate peptide, 1 uL of 225 µM AcH4-21, was added to each reaction for 15 min. To quench the reaction, each sample received 2 µL of 0.5% TFA solution and placed at room temperature before 2.2 µL of the 6× MTase-Glo reagent was added to each sample for 30 min. Then 13.2 µL of the MTase-Glo Detection solution was added and incubated for an additional 30 min. The luminescence signal was read using a BioTek Synergy 2 Multi-Mode Microplate Reader and the % activity was calculated using an SAH standard curve (0–5 µM) before being fit to Equation (2):(2) Fractional Activity of PRMT=1/1+ 1/IC50 using GraFit version 7.03.

In assay [2] the target is T1, PRMT1. The following applies: cited from earlier work. As for the experimental part:
Table 3 List of Validation Peptide Sequences along with the Kinetic Parameters. | column: kcat (min^−1); Km (µM); kcat/Km (M^−1 min^−1) || Design and Synthesis of the Peptide Library. Histone peptides are well-documented substrates of PRMT1 and thus provide a good model for the design of a screening library to search for better PRMT1 peptide substrates. […] Given that our study is focused on identifying peptide substrates with improved kinetic parameters, we chose to use a library based on the H4-16 template. Our previous work highlighted that flexibility was permitted within the ... || Rather than testing all individual hit peptide sequences, and to help identify the specific elements that are important for PRMT1 substrate binding, we collected and synthesized a series of consensus-based sequences from the list of hit peptides.

Assay [3] addresses T1, PRMT1. The experiment in a line: MTase-Glo Methyltransferase Assay, kinetic parameters of peptide substrates. Particulars: Tris pH 8.0; for kcat / Km: MTase-Glo luminescence, peptide 0–1000 µM, 4 µL of 200 nM PRMT1, 10 min at 37 °C, SAH standards, fit with GraFit; for kcat/Km: from kcat and Km, MTase-Glo assay, 37 °C. The assay is classed as biochemical. As for the experimental part:
To determine the kinetic parameters, kcat, Km and kcat/Km for each of the validation or hit peptides, a MTase-Glo™ Methyltransferase Assay from the Promega Corporation was utilized to monitor the enzymatic reaction.
Varying concentrations (0–1000 µM) of the peptide in assay buffer (4 mM DTT, 0.4 mg/mL BSA, 4 mM EDTA, 12 mM MgCl2, 200 mM NaCl and 80 mM Tris Buffer-pH 8.0) were incubated at 37 °C for 10 min. Then 4 µL of 200 nM PRMT1 was added to this reaction mixture and continued for another 10 min at 37 °C. Of note the enzymatic activity was linear with respect to time and enzyme concentration under these conditions. The reaction was quenched by the addition of 2 µL 0.5% TFA and placed at room temperature before adding 2.2 µL of the 6× MTase-Glo Reagent. After 30 min, 13.2 µL of the MTase-Glo Detection Solution was added and incubated for an additional 30 min before the luminescence was read using a BioTek Synergy 2 Multi-Mode Microplate Reader (Agilent Technologies, Santa Clara, CA). Luminescence signal was converted to product concentration using SAH standards (0–5 μM) and the initial rates were fit to Equation (1):[…](1) using GraFit version 7.03.

The subject of assay [4] is PRMT1. The experiment in a line: Plate-based on-bead substrate screening assay (ADMA antibody / alkaline phosphatase / BCIP). In kind it is biochemical. Particulars: 20 beads/well; 500 nM PRMT1, 400 µM SAM, 37 °C, HEPES pH 8.0; hit = at least 10 blue beads per well. As for the experimental part: The beads from the filter plate were transferred to an Acrowell 96 Filter screening plate (Cat#5020; Pall Corporation; Port Washington, NY) and rinsed with 0.20 mL DI water, followed by 0.20 mL of TBST 10 times. The beads were swelled with 0.25 mL TBST overnight with gentle rocking at 4 °C. The plate was rinsed with 0.25 mL of Assay Buffer #1 (50 mM HEPES pH 8.0, 50 mM NaCl, 1 mM EDTA). After draining, the plate was incubated with 500 nM PRMT1 in 0.1 mL of Assay Buffer #2 (50 mM HEPES pH 8.0, 50 mM NaCl, 1 mM EDTA, 0.5 mM DTT, 400 µM SAM) for 90 min at 37 °C while rocked gently at 120 rpm. The plate was rinsed with TBST (5 × 0.20 mL) then rocked gently in 100 µL of 0.1% SDS for 15 min at room temperature, before being washed with DI water (10 × 0.20 mL) and TBST (10 × 0.20 mL).
Beads were blocked with 125 µL of 1.5% (w/v) BSA in TBST for 1 h at room temperature with gentle rocking. The beads were rinsed with TBST (5 × 0.20 mL), then incubated overnight at 4 °C with 0.065 mL total volume of TBST + 1.5% (w/v) BSA + 1:500 Ab412 antibody (purchased from Abcam; Cambridge, UK) with gentle rocking.
The plate was then rinsed with 0.20 mL of TBS for 10 min and 0.20 mL TBST for another 10 min. The plate was incubated with gentle rocking for 60 min at room temperature with 0.065 mL total volume of TBST + 1.5% (w/v) BSA + 1:4000 Ab98690 antibody (secondary antibody: purchased from Abcam; Cambridge, UK). This mixture was rinsed with TBS (10 × 0.20 mL), then 0.2 mL TBST for 10 min. The plate was then incubated with 2.5 mg/mL 5-Bromo-4-chloro-3-indolyl phosphate (BCIP: a substrate that detects alkaline phosphatase emitting a blue hue when conjugated with secondary antibodies) dissolved in BCIP buffer (5.85 g NaCl, 12.1 g Tris-base, 0.476 g MgCl2 in 1 L of DI water, pH 9.0) at room temperature for 1 h with gentle rocking. The reaction was quenched with 0.1 M HCl.
Previously, we reported on this novel plate-based screening assay of the PRMT family of enzymes and identified a PRMT1 peptide substrate with kcat/Km of 8.1 × 10^4 M^−1 min^−1, which validated this screening methodology. In the current work, we utilized this method to screen a second-generation peptide library against PRMT1, which incorporated amino acids with diverse charge, size, and PTMs around the substrate arginine. Beads functionalized with peptide library members were washed extensively with buffers and subsequently incubated with PRMT1 for 60 min. The methylation reaction was then quenched with sodium dodecyl sulfate to denature PRMT1 and halt the enzymatic reaction. The peptide beads that contained ADMA as a result of PRMT1 action were identified using a 1° antibody that binds only to ADMA. […] The beads were then incubated with a 2° antibody conjugated to alkaline phosphatase. […]

Where [5] appears, read: reference histone peptide substrate in Table 3, same kcat/Km as quoted.

Read-outs that look alike come from different tables or passages of the source. Starred links: 1 amine or outer side, 2 acyl side, 3 side chain; linkers in the order of their positions; H or OH if unused. Non-standard residues stand in square brackets, D forms with d. Residues, ends and D or L forms follow the SMILES beside them. X1 = N=C(CCl)NCCC[C@H](N[*:1])C(=O)[*:2]

For the compound `CC(=O)NCCCC[C@H](N)C(=O)N[C@@H](CCCCN)C(=O)N[C@@H](CS)C(=O)N[C@@H](CCCCN)C(=O)N[C@@H](C)C(=O)N[C@@H](CCCNC(=N)CCl)C(=O)NCC(=O)NCC(=O)N[C@@H](CCCCN)C(=O)NCC(=O)N[C@@H](CC(C)C)C(=O)NCC(=O)N[C@@H](CCCCN)C(=O)NCC(=O)NCC(=O)N[C@@H](C)C(=O)N[C@@H](CCCCN)C(N)=O` [VALPep1 Warhead Peptide] (H-K(Ac)KCKA[X1]GGKGLGKGGAK-NH2), the half-inhibitory concentration (IC50) at PRMT1 [1] is 3.47 ± 0.46 µM.

Turning to “H4-21 peptide: one of the best-known PRMT1 peptide substrates”, the kcat/Km is 4670 M⁻¹ s⁻¹ in the assay with PRMT1 [2] (known PRMT1 peptide substrate Histone H4-21, literature value, no reference printed) and 4670 M⁻¹ s⁻¹ in the assay with PRMT1 [2] (known PRMT1 peptide substrate Histone H4-21, literature value, no reference printed, listed as Histone H4-21).

Take “SGRGKGGKGLGKGGAK [AcH4-16, Histone H4-16 peptide, a mediocre substrate of PRMT1, template of the library]”: at PRMT1 [2] (setting [5]), the Michaelis-Menten constant (Km) was 170 ± 25 µM and the catalytic constant (kcat) is 0.00533 ± 1.7e-05 s⁻¹. For the same compound, the specificity constant (kcat/Km) on PRMT1 [2] (reference histone peptide substrate) was 31.7 M⁻¹ s⁻¹.

Consider “VKVCXRGGKGLGKGGAK [Well D5 Peptide, “hit” library peptide VKVCX…, X = acetylated lysine]”, for which, on PRMT1 [3], the kcat worked out at 0.0318 ± 0.00188 s⁻¹ and the catalytic efficiency (kcat/Km) came to 4700 M⁻¹ s⁻¹. In addition, at PRMT1 [3] (listed as Well D5), the kcat came to 0.03187 ± 0.00188 s⁻¹ and the kcat/Km is 4702 M⁻¹ s⁻¹. Further, at PRMT1 [3] (read-out: Km), the Michaelis constant (Km) turned out to be 6.78 ± 1.77 µM. For the same compound, in the assay with PRMT1 [4], the “hit / non-hit as PRMT1 substrate in the plate-based screen” value (“hit / non-hit as PRMT1 substrate” for short) was “hit”.

“VXWAWRGGKGLGKGGAK [Well E9 Peptide, “non-hit” library peptide VX…, X = acetylated lysine]”: on PRMT1 [3], the Michaelis constant (Km) entry was “not detectable” and the catalytic constant (kcat) entry is given as “not detectable”. Further, in the assay with PRMT1 [4], the “hit / non-hit as PRMT1 substrate” value is “non-hit”.

Consider “WWXXWRGGKGLGKGGAK [Well B10 Peptide, “non-hit” library peptide WWXX…, X = acetylated lysine]”, for which, on PRMT1 [3], the Km result is “not detectable” and the catalytic constant (kcat) result is “not detectable”. For the same compound, the “hit / non-hit as PRMT1 substrate” value in the assay with PRMT1 [4] is given as “non-hit”.

Regarding “XCCVARGGKGLGKGGAK [Well G2 Peptide, “hit” library peptide X…, X = acetylated lysine]”, on PRMT1 [3], the kcat was found to be 0.0164 ± 6.7e-05 s⁻¹ and the catalytic efficiency (kcat/Km) came out at 648 M⁻¹ s⁻¹. The Km at PRMT1 [3] (read-out: Km) was determined as 25.4 ± 3.95 µM. Also, the “hit / non-hit as PRMT1 substrate” value with PRMT1 [4] is “hit”.

As for XKCKARGGKGLGKGGAK [VALPep1], at PRMT1 [3], the kcat worked out at 0.041 ± 0.00133 s⁻¹ and the kcat/Km is 4700 M⁻¹ s⁻¹. Further, at PRMT1 [3] (read-out: Km), the Km was found to be 8.72 ± 1.2 µM.

Regarding XKCVVRGGKGLGKGGAK [VALPep3], on PRMT1 [3], the kcat is 0.0154 ± 0.0006 s⁻¹ and the kcat/Km came to 2230 M⁻¹ s⁻¹. Also, on PRMT1 [3] (read-out: Km), the Km was determined as 6.92 ± 1.16 µM.

On to XKKKARGGKGLGKGGAK [VALPep2], for which, at PRMT1 [3], the kcat worked out at 0.043 ± 0.0029 s⁻¹ and the kcat/Km was 5480 M⁻¹ s⁻¹. Besides, on PRMT1 [3] (read-out: Km), the Km was found to be 7.82 ± 2.23 µM.

For the compound XKKVVRGGKGLGKGGAK [VALPep4], at PRMT1 [3], the kcat came out at 0.0268 ± 0.00173 s⁻¹ and the kcat/Km came out at 3600 M⁻¹ s⁻¹. The Km on PRMT1 [3] (read-out: Km) is 7.42 ± 2.02 µM.
